Data reported in patent US5393788A, “Phenylalkyl oxamides” (SmithKline Beecham Corporation, priority 1993, dated 1995).

Legend:
TNF / endotoxin shock = experiment: Two in vivo models of endotoxin shock (one or both, not specified); design: species or system mouse; conditions: for protection from the lethal effects of endotoxin shock: in vivo endotoxin shock models
Source text: (§1) Two models of endotoxin shock have been utilized to determine in vivo TNF activity for the compounds of Formula (1). The protocol used in these models is described in Badger et al., EPO published Application 0 411 754 A2, Feb. 6, 1991, and in Hanna, WO 90/15534, Dec. 27, 1990.

[1] = system: TNF production / endotoxic shock; experiment: P acnes/LPS treated mice model of endotoxic shock; type: in vivo
Source text: as §1

serum TNF = experiment: LPS/GAL mouse model of endotoxic shock; type: in vivo
Source text: as §1

Structure (SMILES)	protection from the lethal effects of endotoxin shock (TNF / endotoxin shock)	in vivo TNF levels (TNF / endotoxin shock; one or both of the in vivo assays)	survival rate ([1]; P acnes/LPS model, control group 100% lethality) [%]	TNF production ([1]; P acnes/LPS treated mice)	serum TNF levels (serum TNF)
COc1ccc(CCNC(=O)C(N)=O)cc1OC [Example 8, N-[2-(3,4-Dimethoxyphenyl)ethyl]oxamide]	protected the animals from endotoxic induced shock	inhibited in vivo TNF levels	–	–	–
COc1ccc(CCNC(=O)C(N)=O)cc1OC1CCCC1 [Example 15, N-[2-(3-Cyclopentyloxy-4-methoxyphenyl)ethyl]oxamide]	protection from the lethal effects of endotoxin shock	–	80	inhibition of TNF production	reduction in serum TNF levels
